The source of these data is patent US6806265B2, “Non-nucleoside reverse transcriptase inhibitors” (priority 2002, dated 2004).

pEC50, pIC50: −log10 of the molar value. Like-named read-outs stand apart in the source and are kept apart here. A value given as a limit tells only on which side of the number the result lay.

Test [1] concerns the target T1, HIV-1 RT double mutant K103N/Y181C (Human immunodeficiency virus type 1 group M subtype B, UniProt P03366, K702N/Y780C).
T1 construct: HIV-1 wild type reverse transcriptase as well as the clinically significant double mutant K103N/Y181C
Nature of the test: biochemical. On the procedure: (§1) Utilizing the Reverse Transcriptase (RT) Assay described below, compounds were tested for their ability to inhibit the RNA-dependent DNA polymerase activity of HIV-1 RT. Certain specific compounds described in the Examples and in Tables 1-4, were so tested. The results of this testing appear in Table 5 as ranges of IC50 (nM) and EC50 (nM).
(§2) Reverse Transcriptase (RT) Assays

The target of test [2] is T2, HIV-1 wild type reverse transcriptase (Human immunodeficiency virus type 1 group M subtype B, UniProt P03366).
T2 construct: HIV-1 wild type reverse transcriptase
Nature of the test: biochemical. The protocol:
as §1, §2

Test [3] concerns HIV-1 double mutant K103N/Y181C. Description: microbe, parasite or virus in culture. The test is classed as cell-based. The settings on record: for EC50: Human immunodeficiency virus 1, read-out: EC50 K103N/Y181C (nM); for pEC50: double mutant K103N/Y181C, read-out: EC50 K103N/Y181C.
Test [4] deals with HIV-1 wild type. Description: microbe, parasite or virus in culture. It is filed as cell-based. As to conditions: wild type, read-out: EC50 WT RT.
Where [5] appears, read: wild type RT, read-out: IC50 WT RT.
The mark [6] stands for this setting: RT double mutant K103N/Y181C, read-out: IC50 K103N/Y181C.

Consider `CCN1c2ncc(CCOc3ccc(-c4ncc[nH]4)cc3C)cc2C(=O)N(C)c2cccnc21` [Entry 1096, 11-Ethyl-5,11-dihydro-8-{2-[4-(1H-imidazol-2-yl)-2-methylphenoxy]ethyl}-5-methyl-6H-dipyrido[3,2-b:2′,3′-e][1,4]diazepin-6-one], for which the pIC50 in test [1] and in test [2] (setting [5]) was > 7.30 in each case. Besides, the EC50 in test [3] is < 10 nM.
Compound `CCN1c2ncc(CCOc3ccc(Nc4nc(C(=O)O)cs4)cc3C)cc2C(=O)N(C)c2cccnc21` [Entry 3026] showed a pIC50 in test [1] of 7.00 to 7.30. Further, the pEC50 in test [4] (Human immunodeficiency virus 1) is > 8.00. In test [3], the EC50 lay within 10 to 50 nM.
In the case of `CCN1c2ncc(CCOc3ccc(-c4ccc(C)nc4)cc3C)cc2C(=O)N(C)c2cccnc21` [Entry 1072], the pIC50 in test [1] (setting [6]) is > 7.30. Besides, in test [3], the pEC50 was > 8.00.
Regarding `CCN1c2ncc(CCOc3ccc(-c4cc(CC(=O)O)ccc4C)cc3C)cc2C(=O)N(C)c2cccnc21` [Entry 1036], the values for the pIC50 in test [1] (setting [6]) and in test [2] (setting [5]) were 7.00 to 7.30 and > 7.30, respectively. In test [3], the pEC50 was 7.30 to 8.00.
Turning to `CCN1c2ncc(CCOc3ccc(-c4ccc(C(C)C(=O)O)cc4)cc3C)cc2C(=O)N(C)c2cccnc21` (stereo not shown) [Entry 1010], the pIC50 in test [1] (setting [6]) and in test [2] (setting [5]) was > 7.30 throughout. For the same compound, the pEC50 in test [3] is 7.30 to 8.00.
For the compound `CCN1c2ncc(CCOc3ccc(-c4ccc(CC(=O)O)c(C)c4)cc3C)cc2C(=O)N(C)c2cccnc21` [Entry 1021], the pIC50 in test [1] (setting [6]) and in test [2] (setting [5]) was > 7.30 throughout. The pEC50 in test [3] is 7.30 to 8.00.
As for `CCN1c2ncc(CCOc3ccc(C(=O)N4CCC(C(=O)O)CC4)cc3C)cc2C(=O)N(C)c2cccnc21` [Entry 3008], the pIC50 in test [1] was 7.00 to 7.30; in test [2] (setting [5]), > 7.30. Besides, the pEC50 in test [4] (Human immunodeficiency virus 1) was 7.30 to 8.00.
Consider `CCN1c2ncccc2NC(=O)c2cc(CCOc3ccc(-c4ccc[n+]([O-])c4)cc3C)cnc21` [Entry 1100], for which the pIC50 in test [2] (setting [5]) is > 7.30. The values for the pEC50 in test [4] and in test [3] were > 8.00 and 7.30 to 8.00, respectively.
On to `CCN1c2ncc(CCOc3ccc(Nc4ccc(C(=O)O)cn4)cc3C)cc2C(=O)N(C)c2cccnc21` [Entry 3025], for which the pIC50 in test [1] is > 7.30. For the same compound, the EC50 in test [3] fell in the range of 10 to 50 nM.
As to `CCN1c2ncc(CCOc3ccc(-c4ccc(Cl)c(C(=O)O)c4)cc3C)cc2C(=O)N(C)c2cccnc21` [Entry 1032], the values for the pIC50 in test [1] (setting [6]) and in test [2] (setting [5]) were 7.00 to 7.30 and > 7.30, respectively. In addition, in test [3], the pEC50 was 7.30 to 8.00.
`CCN1c2ncc(CCOc3ccc(C(=O)NNCC(=O)O)cc3C)cc2C(=O)N(C)c2cccnc21` [Entry 4015]: the pIC50 is < 7.00 in test [1] and > 7.30 in test [2] (setting [5]). The pEC50 in test [4] (Human immunodeficiency virus 1) is 7.30 to 8.00.
Take `CCN1c2ncc(CCOc3ccc(-c4ccc(O)c(C(=O)O)c4)cc3C)cc2C(=O)N(C)c2cccnc21` [Entry 1033]: the pIC50 in test [1] (setting [6]) is 7.00 to 7.30; in test [2] (setting [5]), > 7.30. Further, the pEC50 in test [3] was < 7.30.
`CCN1c2ncc(CCOc3ccc(-c4nccn4C)cc3C)cc2C(=O)N(C)c2cccnc21` [Entry 1097, 11-Ethyl-5,11-dihydro-5-methyl-8-{2-[2-methyl-4-(1-methyl-1H-imidazol-2-yl)phenoxy]ethyl}-6H-dipyrido[3,2-b:2′,3′-e][1,4]diazepin-6-one]: the pIC50 in test [1] was 7.00 to 7.30; in test [2] (setting [5]) it was > 7.30. Moreover, in test [3], the EC50 lay in the range of 10 to 50 nM.
`CCN1c2ncc(CCOc3ccc(C(=O)Nc4ccc(C(=O)O)cn4)cc3C)cc2C(=O)N(C)c2cccnc21` [Entry 3014]: the pIC50 in test [1] and in test [2] was > 7.30 each time. The EC50 in test [3] lay within 10 to 50 nM.
In the case of `CCN1c2ncc(CCOc3ccc(-c4cc(C(=O)O)ccc4C)cc3C)cc2C(=O)N(C)c2cccnc21` [Entry 1028], the pIC50 was < 7.00 in test [1] (setting [6]) and > 7.30 in test [2] (setting [5]). Further, in test [3], the pEC50 was 7.30 to 8.00.
As to `CCN1c2ncc(CCOc3ccc(S(=O)(=O)c4ccc(C(=O)O)cc4)cc3C)cc2C(=O)N(C)c2cccnc21` [Entry 3028], the pIC50 in test [1] and in test [2] (setting [5]) was > 7.30 throughout. In addition, in test [3], the EC50 is > 50 nM.
`CCN1c2ncc(CCOc3ccc(-c4cc(CC(=O)O)ccc4OC)cc3C)cc2C(=O)N(C)c2cccnc21` [Entry 1037]: the figures for the pIC50 in test [1] (setting [6]) and in test [2] (setting [5]) were 7.00 to 7.30 and > 7.30, respectively. Moreover, in test [3], the pEC50 is 7.30 to 8.00.
For `CCN1c2ncc(CCOc3ccc(-c4ccc(CC(=O)O)cc4F)cc3C)cc2C(=O)N(C)c2cccnc21` [Entry 1024], in that order: > 7.30, > 7.30 and 7.30 to 8.00.
As to `CCN1c2ncc(CCOc3ccc(-c4cccnc4)cc3C)cc2C(=O)N(C)c2cccnc21` [Entry 1067], the pIC50 in test [1] (setting [6]) and in test [2] (read-out: IC50 WT RT) was > 7.30 throughout. Moreover, the pEC50 in test [3] is > 8.00.
As to `CCN1c2ncc(CCOc3ccc(S(=O)(=O)c4ccncc4)cc3C)cc2C(=O)N(C)c2cccnc21` [Entry 3037], in test [1], the pIC50 was > 7.30. Moreover, in test [3], the EC50 was < 10 nM.
With `CCN1c2ncc(CCOc3ccc(-c4ccc(Cl)c(CC(=O)O)c4)cc3C)cc2C(=O)N(C)c2cccnc21` [Entry 1038], the pIC50 in test [1] (setting [6]) and in test [2] (setting [5]) was > 7.30 throughout. The pEC50 in test [3] is 7.30 to 8.00.
For the compound `CCN1c2ncc(CCOc3ccc(-n4ccnc4)cc3C)cc2C(=O)N(C)c2cccnc21` [Entry 1098, 11-Ethyl-5,11-dihydro-8-{2-[4-(1H-imidazol-1-yl)-2-methylphenoxy]ethyl}-5-methyl-6H-dipyrido[3,2-b:2′,3′-e][1,4]diazepin-6-one], the pIC50 in test [1] is > 7.30. Also, the EC50 in test [3] was < 10 nM.
The like results for `CCN1c2ncc(CCOc3ccc(S(=O)(=O)c4cccc(CC(=O)O)c4)cc3C)cc2C(=O)N(C)c2cccnc21` [Entry 3029] were, in that order, > 7.30 and > 50 nM.
In the case of `CCN1c2ncc(CCOc3ccc(-c4ccc(CCC(=O)O)o4)cc3C)cc2C(=O)N(C)c2cccnc21` [Entry 1049], the pIC50 was < 7.00 in test [1] (setting [6]) and > 7.30 in test [2] (read-out: IC50 WT RT).
As for `CCN1c2ncc(CCOc3ccc(Nc4ccccn4)cc3C)cc2C(=O)N(C)c2cccnc21` [Entry 3036], the pIC50 in test [1] was > 7.30. Further, the EC50 in test [3] was < 10 nM.
`CCN1c2ncc(CCOc3ccc(-c4ccc(F)c(CC(=O)O)c4)cc3C)cc2C(=O)N(C)c2cccnc21` [Entry 1057]: the pIC50 in test [1] (setting [6]) and in test [2] (setting [5]) was > 7.30 each time.
Regarding `CCN1c2ncc(CCOc3ccc(-c4cc[n+](C)cc4)cc3C)cc2C(=O)N(C)c2cccnc21` [Entry 1089], the pIC50 in test [1] (setting [6]) was > 7.30. In addition, the pEC50 in test [3] was > 8.00.
As for `CCN1c2ncc(CCOc3ccc(-c4cscn4)cc3)cc2C(=O)N(C)c2cccnc21` [Entry 1092], the pIC50 in test [1] (setting [6]) was < 7.00; in test [2] (setting [5]) it was > 7.30.
For `CCN1c2ncc(CCOc3ccc(-c4ccc(C(=O)O)cc4)cc3)cc2C(=O)N(C)c2ccc(Cl)nc21` [Entry 1002], the pIC50 in test [1] (setting [6]) and in test [2] (setting [5]) was > 7.30 in each case. Besides, the pEC50 in test [4] was > 8.00.
On to `CCN1c2ncc(CCOc3ccc(C(=O)N(C)Cc4ccc(C(=O)O)cc4)cc3C)cc2C(=O)N(C)c2cccnc21` [Entry 3006], for which the results for the pIC50 in test [1] and in test [2] (setting [5]) were 7.00 to 7.30 and > 7.30, respectively.
`CCN1c2ncc(CCOc3ccc(-c4ccc(C)cc4)cc3C)cc2C(=O)N(C)c2cccnc21` [Entry 1105]: the pIC50 in test [1] (setting [6]) and in test [2] (setting [5]) was > 7.30 each time.
For the compound `CCN1c2ncc(CCOc3ccc(-c4ccc(CC(=O)O)cc4OC)cc3C)cc2C(=O)N(C)c2cccnc21` [Entry 1026], the pIC50 in test [1] (setting [6]) and in test [2] (setting [5]) was > 7.30 each time. Moreover, the pEC50 in test [3] was 7.30 to 8.00.
For the compound `CCN1c2ncc(CCOc3ccc(C(=O)NCc4ccc(C(=O)O)cc4)cc3C)cc2C(=O)N(C)c2cccnc21` [Entry 3002], the pIC50 in test [1] and in test [2] (setting [5]) was > 7.30 throughout.
In the case of `CCN1c2ncc(CCOc3ccc(NC(=O)NCC(=O)O)cc3C)cc2C(=O)N(C)c2cccnc21` [Entry 4004], the pIC50 in test [1] is < 7.00; in test [2] (setting [5]) it was > 7.30. The pEC50 in test [4] (Human immunodeficiency virus 1) is 7.30 to 8.00.
Consider `CCN1c2ncc(CCOc3ccc(-c4cncnc4)cc3)cc2C(=O)N(C)c2cccnc21` [Entry 1062], for which the pIC50 in test [1] (setting [6]) was < 7.00; in test [2] (setting [5]), > 7.30.
As to `CCN1c2ncc(CCOc3ccc(-c4nc(C(=O)O)cs4)cc3)cc2C(=O)N(C)c2cccnc21` [Entry 1039], the pIC50 is < 7.00 in test [1] (setting [6]) and > 7.30 in test [2] (setting [5]).
Take `CCN1c2ncc(CCOc3ccc(NC(=O)/C=C/C(=O)O)cc3C)cc2C(=O)N(C)c2cccnc21` [Entry 4010]: the pIC50 in test [1] is 7.00 to 7.30; in test [2] (setting [5]), > 7.30. Also, in test [4] (Human immunodeficiency virus 1), the pEC50 is < 7.30.
Take `CCN1c2ncc(CCOc3ccc(NS(C)(=O)=O)cc3C)cc2C(=O)N(C)c2cccnc21` [Entry 4005]: the pIC50 in test [1] and in test [2] (setting [5]) was > 7.30 in each case.
Take `CCN1c2ncc(CCOc3ccc(C(=O)N(C)c4ccc(C(=O)O)cc4)cc3C)cc2C(=O)N(C)c2cccnc21` [Entry 3016]: the results for the pIC50 in test [1] and in test [2] (setting [5]) were 7.00 to 7.30 and > 7.30, respectively. In test [3], the EC50 was in the range of 10 to 50 nM.
As to `CCN1c2ncc(CCOc3ccc(NC(=O)c4ccc(Cl)nc4)cc3C)cc2C(=O)N(C)c2cccnc21` [Entry 3035], the pIC50 in test [1] and in test [2] (setting [5]) was > 7.30 throughout.
With `CCN1c2ncc(CCOc3ccc(-c4ccc(CC(=O)O)cc4)cc3C)cc2C(=O)Nc2c(C)ccnc21` [Entry 1009], the pIC50 in test [1] (setting [6]) and in test [2] (setting [5]) was > 7.30 in each case. For the same compound, the pEC50 in test [4] was 7.30 to 8.00.
